The values that follow come from USRE47193E1, “Selectively substituted quinoline compounds” (EISAI R&D MANAGEMENT CO., LTD., priority 2013, dated 2019).

One test deals with T1, human TLR8 (Homo sapiens, UniProt Q9NR97).
T1 construct: host or cells: HEK-293, then stably transfected with pNiFty2(NF-kappaB)-luciferase reporter
T1 sequence (Q9NR97 27-1041): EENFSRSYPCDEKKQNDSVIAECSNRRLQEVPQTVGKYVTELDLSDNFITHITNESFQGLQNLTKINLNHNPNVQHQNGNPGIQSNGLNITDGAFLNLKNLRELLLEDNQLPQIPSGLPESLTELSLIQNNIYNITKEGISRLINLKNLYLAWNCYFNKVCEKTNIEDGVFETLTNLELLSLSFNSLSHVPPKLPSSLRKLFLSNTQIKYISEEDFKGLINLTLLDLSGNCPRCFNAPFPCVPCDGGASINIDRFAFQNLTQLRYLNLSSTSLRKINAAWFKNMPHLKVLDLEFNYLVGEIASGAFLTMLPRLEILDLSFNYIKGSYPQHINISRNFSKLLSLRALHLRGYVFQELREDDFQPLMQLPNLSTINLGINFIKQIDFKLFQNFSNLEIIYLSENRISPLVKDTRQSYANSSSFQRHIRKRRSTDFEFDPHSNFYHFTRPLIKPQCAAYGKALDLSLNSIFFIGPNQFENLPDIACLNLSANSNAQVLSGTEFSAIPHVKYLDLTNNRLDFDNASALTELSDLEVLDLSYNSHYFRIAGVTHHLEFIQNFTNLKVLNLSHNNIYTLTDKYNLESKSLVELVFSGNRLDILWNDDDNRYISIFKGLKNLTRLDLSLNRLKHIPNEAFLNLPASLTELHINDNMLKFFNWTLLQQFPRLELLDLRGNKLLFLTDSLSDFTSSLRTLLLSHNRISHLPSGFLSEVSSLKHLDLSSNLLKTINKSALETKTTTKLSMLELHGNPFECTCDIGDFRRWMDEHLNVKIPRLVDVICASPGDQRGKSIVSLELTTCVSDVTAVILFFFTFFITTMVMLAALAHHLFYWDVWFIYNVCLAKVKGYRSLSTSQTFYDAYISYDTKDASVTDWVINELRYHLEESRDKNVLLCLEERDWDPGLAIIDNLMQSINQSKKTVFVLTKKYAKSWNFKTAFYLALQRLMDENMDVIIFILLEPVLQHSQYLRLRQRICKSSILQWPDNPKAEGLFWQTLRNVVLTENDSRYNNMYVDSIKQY
Put plainly: HEK-293 human TLR8 NF-kappaB luciferase reporter assay (CL097). In kind it is cell-based. On the procedure:
Effects on mouse TLR7 were also compared. Cells were stimulated overnight with TLR7/8 agonist CL097 at pre-determined ED70-80: 3 ug/ml for HEK-hTLR7, 1.5 ug/ml for HEK-mTLR7 and 12 ug/ml for HEK-hTLR8, before reading luminescence intensity. Three tests were performed and IC50 value was determined using Graphpad Prism 6 nonlinear regression curve fit.
HEK-293 cells (ATCC) were engineered to stably express a NF-kappaB transcription factor inducible E-selectin (ELAM-1) luciferase reporter derived from the plasmid pGL3 (Promega) containing base pairs −2241 bp to −254 bp from the promoter of the human E-selectin gene (Accession No. NM_000450). These cells were then subsequently engineered to stably and individually express human TLR4, TLR7 or TLR9 full-length ORF cDNAs. Human TLR4 cDNA (Accession No. NM_138554) was cloned into pcDNA 3.0 expression vector (Invitrogen). TLR4 transfected cells were also engineered to express human MD-2 co-receptor [MD-2 cDNA (Accession No. NM_015364) was cloned into the pEF-BOS vector] and were supplemented with 10 nM soluble CD14 (R&D Systems) in the media to optimize LPS responsiveness. Human TLR9 cDNA (Accession No. NM_017442) was cloned into the pBluescript II KS vector (Agilent). Human TLR7 cDNA (Accession No. NM_016562) was obtained from OriGene. HEK-293 cells stably expressing human TLR8 (Accession No. NM_138636) or mouse TLR7 (Accession No. NM_133211) were purchased from InvivoGen and were then stably transfected with pNiFty2(NF-kappaB)-luciferase reporter plasmid (InvivoGen). Each cell type was plated in Dulbecco's modified Eagle's medium (DMEM) containing 10% fetal bovine serum (FBS) at a density of 2.22×10^5 cells/ml into a 384-well plate and incubated for 2 days at 37° C., 5% CO2. Varying concentrations of antagonist compounds were then added. Cells were then incubated for another 30 minutes before adding the appropriate TLR agonist as follows (final concentrations indicated): lipopolysaccharide (LPS; Sigma) at 10 ng/ml for TLR4, CL097 (InvivoGen) at 3 ug/ml for human TLR7 and TLR8 and mouse TLR7, and CvG-2006-2A [sequence: […] (SEQ ID NO: 1) with phosphorothioate backbone, synthesized by Sigma-Aldrich] at 0.6 uM for TLR9.
(In general: In a reporter assay the amount or activity of a reporter protein is the signal.)

Another test has as its system Mouse Splenocytes. Put plainly: Mouse spleen cell-based assay (R848, IL-6 ELISA). The conditions noted are these: Mus musculus, Splenocyte, BALB/c spleen cells, 370 nM R848. On the procedure:
Mouse Spleen cell-based assay. Spleens were harvested from female BALB/c mice (Jackson Labs, Bar Harbor, Me.) euthanized by CO2. A single cell suspension was obtained by passing spleens through a 40 μm an nylon cell strainer. Cells were washed twice with 50 ml PBS (Mediatech, Inc., Manassas, Va.) and red blood cells were lysed in 5 ml RBC Lysis buffer (eBioscience, Inc., San Diego, Calif.) for 5 minutes at room temperature. Cells were washed twice more in PBS and finally resuspended in supplemented RPMI-1640 at 2.5×10^6 cells/ml. Cells were plated at 100 μl/well (2.5×10^5 cells/well) in 96-well tissue culture treated plates (Falcon). Serial dilutions of compounds solubilized in 100% DMSO were added in triplicate to cells to yield a final concentration of 0.1% DMSO. Cells were incubated with compound for 30 minutes at 37° C., 5% CO2 before adding 100 μl/well of 740 nM R848 (Resiquimod; GLSynthesis, Worcester, Mass.) in complete media for a final concentration of 370 nM R848. Cells were incubated for 20 hours at 37° C., 5% CO2. Culture supernatants were collected, and levels of IL-6 were assessed by standard ELISA procedure according to the manufacturer's recommended protocol (BD Biosciences, Inc., San Diego, Calif.).
Background: An ELISA detects its analyte on a solid surface through an enzyme-linked reagent.

Where [1] appears, read: HEK-293 assay format, read-out: HEK/hTLR8 IC50.

Where “and” joins values, the source holds several entries; their conditions need not be identical. Equal entries are not always repeated. Where two headings read alike, the source gives them in different places. Where only a bound is given, the exact number is not on record here.

On to `C[C@@H]1CN(c2ccc(C#N)c3ncccc23)C[C@H](C)O1` [ER-878952], for which the IC50 is 6 nM and 19.5 nM at human TLR8 (setting [1]); 1610 nM in the test with Mouse Splenocytes.

Consider `C[C@@H]1CN(c2ccc(C#N)c3ncccc23)C[C@H](CO)O1` [ER-885493, 5-((2R,6R)-2-(hydroxymethyl)-6-methylmorpholino)quinoline-8-carbonitrile], for which the figures for the IC50 on human TLR8 (setting [1]) and with Mouse Splenocytes were 101 nM and 517 nM, respectively.

As for `CC1CN(c2ccc(C#N)c3ncccc23)CC(CN2CCCC2CO)O1` (centres unmarked) [ER-886814], the IC50 at human TLR8 (setting [1]) is 60 nM.

For `C[C@@H]1CN(c2ccc(C#N)c3ncccc23)C[C@H](CN2CC[C@H](O)C2)O1` [ER-886820], the IC50 at human TLR8 (setting [1]) was determined as 78 nM.

`C[C@@H]1CN(c2ccc(C#N)c3ncccc23)C[C@H](CN2CCC(O)CC2)O1` [ER-886953]: the IC50 at human TLR8 (setting [1]) stood at 66 nM.

`C[C@@H]1CN(c2ccc(C#N)c3ncccc23)C[C@H](CNC2CCCC2)O1` [ER-887145]: the IC50 at human TLR8 (setting [1]) was determined as 105 nM.

Turning to `C[C@@H]1CN(c2ccc(C#N)c3ncccc23)C[C@H](CN2CCNCC2)O1` [ER-887253], the IC50 at human TLR8 (setting [1]) amounted to 2 nM; in the test with Mouse Splenocytes it was 49 nM.

On to `C[C@@H]1CN(C[C@H]2CN(c3ccc(C#N)c4ncccc34)C[C@@H](C)O2)CCN1` [ER-887269], for which the IC50 on human TLR8 (setting [1]) was 3.2 nM.

On to `CC1CNC(=O)CN1C[C@H]1CN(c2ccc(C#N)c3ncccc23)C[C@@H](C)O1` (some centres unmarked) [ER-887722], for which the IC50 at human TLR8 (setting [1]) is 21 nM; with Mouse Splenocytes it was 463 nM.

Consider `C[C@@H]1CN(c2ccc(C#N)c3ncccc23)C[C@H](CN2CCN(C)CC2)O1` [ER-887723], for which the values for the IC50 on human TLR8 (setting [1]) and in the test on Mouse Splenocytes were 9 nM and 47 nM, respectively.

On to `CCCN1CCN(C[C@H]2CN(c3ccc(C#N)c4ncccc34)C[C@@H](C)O2)CC1` [ER-887724], for which the IC50 is 6 nM on human TLR8 (setting [1]) and 70 nM with Mouse Splenocytes.

As for `CC1CN(c2ccc(C#N)c3ncccc23)CC(CN2CCC(N(C)C)CC2)O1` (centres unmarked) [ER-887725], the IC50 on human TLR8 (setting [1]) was 1 nM.

`C[C@@H]1CN(c2ccc(C#N)c3ncccc23)C[C@H](CN2CCC(N3CCCCC3)CC2)O1` [ER-887927, 5-((2S,6R)-2-([1,4′-bipiperidin]-1′-ylmethyl)-6-methylmorpholino)quinoline-8-carbonitrile]: the IC50 came to 0.5 nM at human TLR8 (setting [1]) and 26 nM in the test with Mouse Splenocytes.

`CC(=O)NC1CCN(CC2CN(c3ccc(C#N)c4ncccc34)CC(C)O2)CC1` (centres unmarked) [ER-888288] gave an IC50 in the test with Mouse Splenocytes of 135 nM.

The compound `CC1CN(c2ccc(C#N)c3ncccc23)CC(CN2CCN(C)CC2C)O1` (centres unmarked) [ER-889556] displayed an IC50 in the test with Mouse Splenocytes of 432 nM.

In turn, `CC1CN(c2ccc(C#N)c3ncccc23)CC(CN2CCC(NC(=O)C(C)C)CC2)O1` (centres unmarked) [ER-889745] displayed an IC50 in the test on Mouse Splenocytes of 90 nM.

Regarding `CC[C@H]1CN(C[C@H]2CN(c3ccc(C#N)c4ncccc34)C[C@@H](C)O2)CCN1` [ER-890963], the IC50 at human TLR8 (setting [1]) turned out to be 2.8 nM; with Mouse Splenocytes, 250 nM.

`C[C@@H]1CN(c2ccc(C#N)c3ncccc23)C[C@H](C(=O)N[C@H]2CNC[C@H]2F)O1.Cl` [ER-899742, (2R,6R)-4-(8-cyanoquinolin-5-yl)-N-[(3S,4R)-4-fluoropyrrolidin-3-yl]-6-methylmorpholine-2-carboxamide hydrochloride]: the IC50 on human TLR8 (IC50, HEK-hTLR8, CL097 12 ug/ml, individual tests 1-3) was 2 nM and 2.5 nM and 2.6 nM; against human TLR8 (IC50 average, HEK-hTLR8, CL097 12 ug/ml, average of three tests) it was 2.4 nM.

Take `CCN(CCO)CCCC(C)Nc1ccnc2cc(Cl)ccc12` (centres unmarked) [HCQ, hydroxychloroquine, reference compound]: the IC50 on human TLR8 (HEK-hTLR8, CL097 12 ug/ml, average of three tests, read-out: IC50 average) is above 10000 nM; on human TLR8 (HEK-hTLR8, CL097 12 ug/ml, individual tests 1-3, read-out: IC50) it was above 10000 nM.
